{
  "source": "patent US10092515B2",
  "about": "“Liposomal formulations of polymyxin B and uses thereof” (University of Houston System, priority 2012, dated 2018)",
  "key": {"[1]": {"assay": "Serum pharmacokinetics after intravenous polymyxin B liposomes or aqueous solution (USP)", "assay_type": "in vivo, Swiss Webster mice", "conditions": "for AUC(0-t): n = 4, normalized by dose, read-out: AUC0-6 h", "procedure": "(§1) The animal protocol was approved by the University of Houston Institutional Animal Care and Use Committee. The animals received food and water ad libitum. Two groups of 24 female ND4 Swiss Webster mice (20-23 g, Harlan Laboratory, Indianapolis, Ind.) were intravenously administrated PB liposomes and aqueous solution (USP), respectively, at approximately 3 mg/kg through the tail vein. At each time point (0.1, 0.5, 1, 2, 4 and 6 h post-dose), four mice were sacrificed for blood and epithelial lining fluid sample collection. The blood samples were clotted on crushed ice and the serum was obtained by centrifugation. The epithelial lining fluid samples were obtained by bronchoalveolar lavage. All the serum and epithelial lining fluid samples were stored at −80° C. until analysis.\n(§2) Four major polymyxin B components in serum and epithelial lining fluid samples were assayed by a validated UPLC-MS/MS method. An Acquity UPLC HSS C18 column was used with 0.1% formic acid/acetonitrile as mobile phases. Analysis was performed in positive ionization mode with multiple reactions monitoring (MRM) scan type. Briefly, the serum and epithelial lining fluid samples (200 μl) were spiked with 20 μl of carbutamide (internal standard). Two hundred μl of 5% trichloroacetic acid was added to precipitate the proteins, followed by 1 min of vortexing. After centrifugation at 18,000× g for 15 min, the supernatant was transferred to a new tube and evaporated to dryness under a stream of nitrogen. The residue was reconstituted in 100 μl of mobile phase (acetonitrile: 0.1% formic acid=50:50) and then centrifuged at 18,000×g for 15 minutes. Ten μl of supernatant was injected into the UPLC-MS/MS for quantitative analysis. The linear concentration range was 6.5-3200 ng/ml for both serum and epithelial lining fluid samples. The intra-day and inter-day variance was less than […] for all the components in both serum and epithelial lining fluid. The concentration of drug in epithelial lining fluid (CELF) was corrected using the equation: CELF=CBALF× Ureaserum/UreaBALF, where UreaBALF and Ureaserum were the concentrations of urea in bronchoalveolar lavage fluid (BALF) and serum, respectively (18).\n(§3) Concentrations of urea in serum and BALF samples were quantified with a commercially available assay kit (Quantichrom™ Urea Assay kit, BioAssay System, Hayward, Calif.) and measured on a Synergy2 microplate reader (BioTek Instrument, Winooski, Vt.). Drug exposures observed in both serum and epithelial lining fluid were normalized by the specific dose of each batch of liposomes to account for the variances among different pharmacokinetic experiments. Naïve data averaging was used; the best-fit pharmacokinetic parameters as well as drug exposure in serum and ELF were calculated by WinNonlin 3.3 (Pharsight Corporation, Mountain View, Calif.) using a one-compartment model and non-compartmental analysis, respectively. Statistical differences between liposome and aqueous solution were determined by Mann-Whitney test at the significance level of p≤0.05."}, "[2]": {"assay": "Epithelial lining fluid (ELF) pharmacokinetics after intravenous polymyxin B liposomes or aqueous solution (USP)", "assay_type": "in vivo, Swiss Webster mice", "conditions": "for AUC(0-t): female, ND4 Swiss Webster, n = 4, read-out: AUC0-6 h, epithelial lining fluid", "procedure": "as §1, §2, §3"}, "[3]": {"assay": "Kidney exposure after IV polymyxin liposome or solution (USP)", "assay_type": "in vivo, mice", "conditions": "for AUC0-6 h, kidney / AUC(0-t): female, ND4 Swiss Webster"}, "[4]": {"test_system": "Lrp2/megalin", "assay": "Urinary excretion of megalin after maleate administration (ELISA)", "assay_type": "in vivo", "conditions": "rats, single 400 mg/kg intraperitoneal dose", "procedure": "Three rats were housed individually in separate metabolic cages 24 h prior to maleate pretreatment. A single dose of 400 mg/kg of sodium maleate was given intraperitoneally; this was previously reported to induce reversible ultrastructural modifications in the apical brush border membrane of proximal renal tubules (34). To study megalin urinary excretion, cumulative urine was collected daily from day −1 to day 15. The urine samples were spun down to remove particulate matter. Subsequently, the urine samples were aliquoted and stored at −80° C. prior to analysis. The samples were thawed, and urinary Lrp2/megalin concentrations were quantitatively measured using a commercially available ELISA kit for megalin. For each animal, the daily megalin concentrations were expressed as a normalized ratio to the baseline megalin value."}, "[5]": {"test_system": "proximal tubules", "assay": "Electron microscopy of maleate-treated kidney sections", "assay_type": "in vivo", "conditions": "rats", "procedure": "For morphological studies, one animal was sacrificed at 3 h and another at 14 days after maleate administration to collect the kidneys. The harvested kidneys were submitted for electron microscopic studies. Tissue samples from both renal cortical and medullary regions were fixed in 2% glutaraldehyde at 4° C. overnight, followed by additional fixation in osmium tetroxide. The renal tissue was dehydrated and embedded in epoxy resin. Approximately 1-μm pilot sections were stained with toluidine for selection of the areas for further ultrastructural examination. Thin sections of these selected areas were cut and subjected to examination under a JEOL 300 electron microscope at 80 kV. The kidneys from two naive rats were harvested, processed in a similar fashion, and used as controls."}, "[6]": {"conditions": "female, ND4 Swiss Webster, mouse, in vivo, iv"}, "[7]": {"conditions": "mouse, in vivo, iv, 3 mg/kg, AUC0-6 h, kidney"}},
  "note": "Like-named read-outs stand apart in the source and are kept apart here. Where a SMILES comes first, the peptide text is derived from it. Bridges are numbered along the chain shown (N, C = ends). [ ]: non-standard residue; d: D form. The star is where a group is joined. Heptanoyl(6-Me) = CC(C)CCCCC(=O)*; X1 = CC[C@H](C)CCCCC(=O)*; Octanoyl = CCCCCCCC(=O)*; Dab = NCC[C@H](N)C(=O)O",
  "data": [
    {"smiles": "CC[C@H](C)CCCCC(=O)N[C@@H](CCN)C(=O)N[C@H](C(=O)N[C@@H](CCN)C(=O)N[C@H]1CCNC(=O)[C@H]([C@@H](C)O)NC(=O)[C@H](CCN)NC(=O)[C@H](CCN)NC(=O)[C@H]([C@@H](C)CC)NC(=O)[C@@H](Cc2ccccc2)NC(=O)[C@H](CCN)NC1=O)[C@@H](C)O", "note": "[ile-PB1, isoleucine polymyxin B1] (X1-[Dab]T[Dab][Dab][Dab][dF]I[Dab][Dab]T; lactam 4-C)", "values": [
      {"measurement": "half-life", "setting": "[1]; [6]", "value": 25.2, "unit": "min"},
      {"measurement": "T1/2 (elimination half-life)", "setting": "[1]; mouse, in vivo, iv", "value": 17.4, "unit": "min"},
      {"measurement": "time post-dose up to which the component could be quantified in ELF", "setting": "[2]; mouse, in vivo, iv", "value": "up to 4 h"},
      {"measurement": "AUC ratio (liposome:solution), epithelial lining fluid", "setting": "[2]; mouse, in vivo, iv, 3 mg/kg", "value": 4.55},
      {"measurement": "AUC0-6 h, kidney", "setting": "[3]; mouse, in vivo, iv, 3 mg/kg", "value": 4980, "unit": "ng·h/mL"},
      {"measurement": "AUC(0-t)", "setting": "[3]; [7]", "value": 4160, "unit": "ng·h/mL"},
      {"measurement": "AUC ratio (liposome:solution), kidney", "setting": "[3]; mouse, in vivo, iv, 3 mg/kg", "value": 0.84}
    ]},
    {"smiles": "CC(C)CCCCC(=O)N[C@@H](CCN)C(=O)N[C@H](C(=O)N[C@@H](CCN)C(=O)N[C@H]1CCNC(=O)[C@H]([C@@H](C)O)NC(=O)[C@H](CCN)NC(=O)[C@H](CCN)NC(=O)[C@H](CC(C)C)NC(=O)[C@@H](Cc2ccccc2)NC(=O)[C@H](CCN)NC1=O)[C@@H](C)O", "note": "[PB2, polymyxin B2] ({Heptanoyl(6-Me)}-[Dab]T[Dab][Dab][Dab][dF]L[Dab][Dab]T; lactam 4-C (inferred))", "values": [
      {"measurement": "clearance", "setting": "[1]; [6]", "value": 5.14, "unit": "mL/min/kg"},
      {"measurement": "half-life", "setting": "[1]; [6]", "value": 26.4, "unit": "min"},
      {"measurement": "Cl (clearance)", "setting": "[1]; mouse, in vivo, iv", "value": 14.998, "unit": "mL/min/kg"},
      {"measurement": "T1/2 (elimination half-life)", "setting": "[1]; mouse, in vivo, iv", "value": 12.6, "unit": "min"},
      {"measurement": "Vss (volume of distribution at steady state)", "setting": "[1]; mouse, in vivo, iv", "value": 0.27474, "unit": "L/kg"},
      {"measurement": "time post-dose up to which the component could be quantified in ELF", "setting": "[2]; mouse, in vivo, iv", "value": "up to 2 h"},
      {"measurement": "AUC ratio (liposome:solution), epithelial lining fluid", "setting": "[2]; mouse, in vivo, iv, 3 mg/kg", "value": 11.10},
      {"measurement": "AUC0-6 h, kidney", "setting": "[3]; mouse, in vivo, iv, 3 mg/kg", "value": 12240, "unit": "ng·h/mL"},
      {"measurement": "AUC(0-t)", "setting": "[3]; [7]", "value": 9440, "unit": "ng·h/mL"},
      {"measurement": "AUC ratio (liposome:solution), kidney", "setting": "[3]; mouse, in vivo, iv, 3 mg/kg", "value": 0.77}
    ]},
    {"smiles": "CC[C@H](C)CCCCC(=O)N[C@@H](CCN)C(=O)N[C@H](C(=O)N[C@@H](CCN)C(=O)N[C@H]1CCNC(=O)[C@H]([C@@H](C)O)NC(=O)[C@H](CCN)NC(=O)[C@H](CCN)NC(=O)[C@H](CC(C)C)NC(=O)[C@@H](Cc2ccccc2)NC(=O)[C@H](CCN)NC1=O)[C@@H](C)O", "note": "[PB1, polymyxin B1] (X1-[Dab]T[Dab][Dab][Dab][dF]L[Dab][Dab]T; lactam 4-C)", "values": [
      {"measurement": "half-life", "setting": "[1]; female, ND4 Swiss Webster, mouse, in vivo, 3 mg/kg, serum, mice, IV polymyxin B liposomes, one-compartment model, read-out: T1/2 (elimination half-life) (converted)", "value": 36, "unit": "min"},
      {"measurement": "AUC(0-t)", "setting": "[1]; female, ND4 Swiss Webster, mouse, in vivo, iv, 3 mg/kg, serum, mice, IV polymyxin B liposomes approx. 3 mg/kg", "value": 4770, "unit": "ng·h/mL"},
      {"measurement": "AUC(0-t)", "setting": "[1]; female, ND4 Swiss Webster, mouse, in vivo, iv, 3 mg/kg, serum, mice, IV polymyxin B solution (USP) approx. 3 mg/kg", "value": 2760, "unit": "ng·h/mL"},
      {"measurement": "total clearance", "setting": "[1]; mice, IV aqueous solution approx. 3 mg/kg", "value": "1.4±0.5", "unit": "I/h/kg"},
      {"measurement": "total clearance", "setting": "[1]; mice, IV liposomal formulation approx. 3 mg/kg", "value": "0.6±0.3", "unit": "I/h/kg"},
      {"measurement": "AUC ratio (liposome:solution), epithelial lining fluid", "setting": "[2]; ELF, mice, IV 3 mg/kg", "value": 6.21},
      {"measurement": "AUC(0-t)", "setting": "[2]; mouse, in vivo, iv, 3 mg/kg, ELF, mice, IV 3 mg/kg polymyxin liposome", "value": 9750, "unit": "ng·h/mL"},
      {"measurement": "AUC(0-t)", "setting": "[2]; mouse, in vivo, iv, 3 mg/kg, ELF, mice, IV 3 mg/kg polymyxin solution (USP)", "value": 1570, "unit": "ng·h/mL"},
      {"measurement": "AUC(0-t)", "setting": "[3]; mouse, in vivo, iv, 3 mg/kg, kidney, mice, IV 3 mg/kg polymyxin liposome, n = 24, read-out: AUC0-6 h, kidney", "value": 28400, "unit": "ng·h/mL"},
      {"measurement": "AUC(0-t)", "setting": "[3]; mouse, in vivo, iv, 3 mg/kg, kidney, mice, IV 3 mg/kg polymyxin solution (USP), n = 24, read-out: AUC0-6 h, kidney", "value": 34200, "unit": "ng·h/mL"},
      {"measurement": "AUC ratio (liposome:solution), kidney", "setting": "[3]; kidney, mice, IV 3 mg/kg", "value": 0.83}
    ]},
    {"smiles": "O=C([O-])/C=C\\C(=O)[O-].[Na+].[Na+]", "note": "[maleate, Sodium maleate dibasic salt]", "values": [
      {"measurement": "elevation in the level of urinary megalin", "setting": "[4]", "value": "approximately 20 times the baseline measurement"},
      {"measurement": "time until urinary megalin levels reverted to baseline", "setting": "[4]", "value": "approximately 11 days"},
      {"measurement": "electron microscopic findings in kidney", "setting": "[5]; two weeks after 400 mg/kg intraperitoneally", "value": "no significant changes"},
      {"measurement": "electron microscopic findings in kidney", "setting": "[5]; within 3 h after 400 mg/kg intraperitoneally", "value": "morphological and ultrastructural changes in the proximal tubules"}
    ]},
    {"smiles": "CCCCCCCC(=O)N[C@@H](CCN)C(=O)N[C@H](C(=O)N[C@@H](CCN)C(=O)N[C@H]1CCNC(=O)[C@H]([C@@H](C)O)NC(=O)[C@H](CCN)NC(=O)[C@H](CCN)NC(=O)[C@H](CC(C)C)NC(=O)[C@@H](Cc2ccccc2)NC(=O)[C@H](CCN)NC1=O)[C@@H](C)O", "note": "[PB3, polymyxin B3] (Octanoyl-[Dab]T[Dab][Dab][Dab][dF]L[Dab][Dab]T; lactam 4-C)", "values": [
      {"measurement": "half-life", "setting": "[1]; [6]", "value": 18, "unit": "min"},
      {"measurement": "T1/2 (elimination half-life)", "setting": "[1]; mouse, in vivo, iv", "value": 16.8, "unit": "min"},
      {"measurement": "time post-dose up to which the component could be quantified in ELF", "setting": "[2]; mouse, in vivo, iv", "value": "up to 2 h"},
      {"measurement": "AUC ratio (liposome:solution), epithelial lining fluid", "setting": "[2]; mouse, in vivo, iv, 3 mg/kg", "value": 4.92},
      {"measurement": "AUC ratio (liposome:solution), kidney", "setting": "[3]; mouse, in vivo, iv, 3 mg/kg", "value": 0.37}
    ]}
  ]
}
